Data from patent US20230183249A1, “NEW TRIAZINOINDOLE COMPOUNDS” (JANSSEN PHARMACEUTICA NV, priority 2020, published 2023).
pEC50, pIC50: −log10 of the molar value.

Tests used:
[1] = molecular target: T1, NLRP3 (Homo sapiens, UniProt Q96P20); assay: PBMC assay, IL-1β release after LPS stimulation; type: cell-based; conditions: human PBMCs, 100 ng/ml LPS for 6 hrs, IL-1β in supernatant via MSD; read-out: IL1β IC50
T1 construct: human peripheral blood mononuclear cells (PBMCs) were isolated from blood; endogenous in cells; host or cells: primary human PBMCs from healthy donors
T1 sequence (Q96P20 whole entry): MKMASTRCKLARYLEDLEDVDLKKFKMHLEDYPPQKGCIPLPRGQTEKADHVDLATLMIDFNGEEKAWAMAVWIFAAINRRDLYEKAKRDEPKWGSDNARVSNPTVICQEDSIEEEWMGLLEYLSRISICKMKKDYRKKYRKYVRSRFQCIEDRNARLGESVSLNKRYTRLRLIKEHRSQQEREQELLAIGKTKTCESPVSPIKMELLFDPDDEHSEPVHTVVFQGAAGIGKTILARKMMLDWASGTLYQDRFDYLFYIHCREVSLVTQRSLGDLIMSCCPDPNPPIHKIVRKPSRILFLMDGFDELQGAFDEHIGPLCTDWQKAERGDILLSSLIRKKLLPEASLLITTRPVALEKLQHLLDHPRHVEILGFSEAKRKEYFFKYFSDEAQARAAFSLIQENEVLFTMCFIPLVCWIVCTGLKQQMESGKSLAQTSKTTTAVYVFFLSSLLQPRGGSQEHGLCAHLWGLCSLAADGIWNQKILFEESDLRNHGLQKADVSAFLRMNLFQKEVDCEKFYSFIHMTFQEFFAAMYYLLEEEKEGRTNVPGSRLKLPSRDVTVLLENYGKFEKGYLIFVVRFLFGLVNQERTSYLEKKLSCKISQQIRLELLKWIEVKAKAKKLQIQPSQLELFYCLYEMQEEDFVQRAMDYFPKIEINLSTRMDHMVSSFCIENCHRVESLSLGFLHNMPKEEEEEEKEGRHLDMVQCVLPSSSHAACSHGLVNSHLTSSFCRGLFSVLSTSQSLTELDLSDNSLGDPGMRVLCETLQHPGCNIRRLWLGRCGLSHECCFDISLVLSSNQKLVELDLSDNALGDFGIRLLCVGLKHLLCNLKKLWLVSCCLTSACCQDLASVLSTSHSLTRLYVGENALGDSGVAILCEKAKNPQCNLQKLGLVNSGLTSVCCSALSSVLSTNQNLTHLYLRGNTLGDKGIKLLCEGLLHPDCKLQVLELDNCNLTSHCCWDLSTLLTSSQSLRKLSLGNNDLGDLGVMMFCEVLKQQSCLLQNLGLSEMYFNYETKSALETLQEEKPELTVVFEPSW
Experimental: The activity of a compound according to the present invention can be assessed by in vitro methods.
Peripheral venous blood was collected from healthy individuals and human peripheral blood mononuclear cells (PBMCs) were isolated from blood by Ficoll-Histopaque (Sigma-Aldrich, A0561) density gradient centrifugation. After isolation, PBMCs were stored in liquid nitrogen for later use. Upon thawing, PBMC cell viability was determined in growth medium (RPMI media supplemented with 10% fetal bovine serum, 1% Pen-Strep and 1% L-glutamine). […] PBMCs were added at a density of 7.5×10^4 cells per well and incubated for 30 min in a 5% C02 incubator at 37° C. LPS stimulation was performed by addition of 100 ng/ml LPS (final concentration, Invivogen, tlrl-smlps) for 6 hrs followed by collection of cellular supernatant and the analysis of IL-1β (μM) and TNF cytokines levels (μM) via MSD technology according to manufacturers' guidelines (MSD, K151A0H).

[2] = tested on: TNF; assay: PBMC assay, TNF cytokine levels after LPS stimulation; type: cell-based; conditions: human PBMCs, 100 ng/ml LPS for 6 hrs, TNF in supernatant via MSD
Experimental: Peripheral venous blood was collected from healthy individuals and human peripheral blood mononuclear cells (PBMCs) were isolated from blood by Ficoll-Histopaque (Sigma-Aldrich, A0561) density gradient centrifugation. After isolation, PBMCs were stored in liquid nitrogen for later use. Upon thawing, PBMC cell viability was determined in growth medium (RPMI media supplemented with 10% fetal bovine serum, 1% Pen-Strep and 1% L-glutamine). Compounds were spotted in a 1:3 serial dilution in DMSO and diluted to the final concentration in 30 μl medium in 96 well plates (Falcon, 353072). PBMCs were added at a density of 7.5×10^4 cells per well and incubated for 30 min in a 5% C02 incubator at 37° C. LPS stimulation was performed by addition of 100 ng/ml LPS (final concentration, Invivogen, tlrl-smlps) for 6 hrs followed by collection of cellular supernatant and the analysis of IL-1β (μM) and TNF cytokines levels (μM) via MSD technology according to manufacturers' guidelines (MSD, K151A0H).
The IC50 values (for IL-1β) and EC50 values (TNF) were obtained on compounds of the invention/examples, and are depicted in the following table: […]

Row | SMILES | pIC50 [1] | pEC50 [2] | melting point [°C]
1 | O=C(Cn1nc(Cl)n2c(cc3ccccc32)c1=O)Nc1ccncn1 [Final Cpd 1, 2-(4-chloro-1-oxo-[1,2,4]triazino[4,5-a]indol-2-yl)-N-pyrimidin-4-yl-acetamide] | 6.21 | < 5.00 | –
2 | O=C(Cn1ncn2c(cc3ccccc32)c1=O)Nc1ccncn1 [Final Cpd 2] | 5.72 | < 5.00 | –
3 | O=C(Cn1ncn2c(cc3ccc(F)cc32)c1=O)Nc1ccncn1 [Final Cpd 3] | 5.80 | < 5.00 | –
4 | O=C(Cn1nc(C2CCC2)n2c(cc3ccccc32)c1=O)Nc1ccncn1 [Final Cpd 4] | 5.81 | < 5.00 | –
5 | O=C(Cn1nc(C(F)F)n2c(cc3ccccc32)c1=O)Nc1ccncn1 [Final Cpd 5] | 6.33 | < 5.00 | –
6 | CC(F)(F)c1nn(CC(=O)Nc2ccncn2)c(=O)c2cc3ccccc3n12 [Final Cpd 6] | < 5.00 | < 5.00 | –
7 | N#Cc1nn(CC(=O)Nc2ccncn2)c(=O)c2cc3ccccc3n12 [Final Cpd 7] | 5.46 | < 5.00 | –
8 | O=C(Cn1nc(-c2ncco2)n2c(cc3ccccc32)c1=O)Nc1ccncn1 [Final Cpd 8] | 5.24 | < 5.00 | –
9 | O=C(Cn1nc(C(F)(F)F)n2c(cc3ccccc32)c1=O)Nc1ccncn1 [Final Cpd 9] | 5.72 | < 5.00 | –
10 | CCc1nn(CC(=O)NC2CC2)c(=O)c2cc3ccc(F)cc3n12 [Final Cpd 10] | 5.77 | < 5.00 | 277.81
11 | COc1ncccc1NC(=O)Cn1nc(C(C)C)n2c(cc3ccccc32)c1=O [Final Cpd 12] | 6.39 | < 5.00 | –
12 | Cc1cc(NC(=O)Cn2nc(C(C)C)n3c(cc4ccccc43)c2=O)ccn1 [Final Cpd 13] | 6.82 | < 5.00 | –
13 | CC(C)c1nn(CC(=O)Nc2ccncn2)c(=O)c2cc3ccccc3n12 [Final Cpd 14] | 6.77 | < 5.00 | –
14 | CCc1nn(CC(=O)Nc2cccnc2)c(=O)c2cc3ccccc3n12 [Final Cpd 15] | 6.20 | < 5.00 | 232.81
15 | CCc1nn(CC(=O)Nc2ccccc2OC)c(=O)c2cc3ccccc3n12 [Final Cpd 17] | 5.55 | < 5.00 | 216.79
16 | O=C(Cn1nc(C2CC2)n2c(cc3ccccc32)c1=O)Nc1ccncn1 [Final Cpd 18] | 6.12 | < 5.00 | –
17 | CN(C)c1nn(CC(=O)NC2CCOCC2)c(=O)c2cc3ccccc3n12 [Final Cpd 20] | 6.51 | < 5.00 | –
18 | CN(C)c1nn(CC(=O)N[C@H]2CC[C@H](O)CC2)c(=O)c2cc3ccccc3n12 [Final Cpd 21] | 6.41 | < 5.00 | –
19 | CC(O)c1nn(CC(=O)Nc2ccncn2)c(=O)c2cc3ccccc3n12 (stereo not shown) [Final Cpd 22, 2-[4-(1-hydroxyethyl)-1-oxo-[1,2,4]triazino[4,5-a]indol-2-yl]-N-pyrimidin-4-yl-acetamide] | 5.84 | < 5.00 | –
20 | Cc1nn(CC(=O)NC2CC2)c(=O)c2cc3ccccc3n12 [Final Cpd 23, N-cyclopropyl-2-(4-methyl-1-oxo-[1,2,4]triazino[4,5-a]indol-2-yl)acetamide] | 5.04 | < 5.00 | –
21 | COc1nn(CC(=O)NC2CCOCC2)c(=O)c2cc3ccccc3n12 [Final Cpd 24, 2-(4-methoxy-1-oxo-[1,2,4]triazino[4,5-a]indol-2-yl)-N-tetrahydropyran-4-yl-acetamide] | 5.93 | < 5.00 | –
22 | O=C(Cn1nc(C2CCCC2)n2c(cc3ccccc32)c1=O)NC1CCOCC1 [Final Cpd 25] | < 5.00 | < 4.70 | –

More lines, now with the values ahead:

Row | pIC50 [1] | pEC50 [2] | melting point [°C] | SMILES
23 | < 5.00 | < 5.00 | – | CC(C)Cc1nn(CC(=O)NC2CCOCC2)c(=O)c2cc3ccccc3n12 [Final Cpd 26]
24 | < 5.00 | < 5.00 | – | O=C(Cn1nc(-c2cccs2)n2c(cc3ccccc32)c1=O)NC1CCOCC1 [Final Cpd 27]
25 | < 5.00 | < 5.00 | – | O=C(Cn1nc(C2CCCCC2)n2c(cc3ccccc32)c1=O)NC1CCOCC1 [Final Cpd 28]
26 | 6.18 | < 5.00 | – | CC(C)c1nn(CC(=O)NC2CC2)c(=O)c2cc3ccccc3n12 [Final Cpd 29]
27 | < 5.00 | < 5.00 | 248.91 | CCc1nn(CC(=O)Nc2ccncn2)c(=O)c2cc3ccc(C)cc3n12 [Final Cpd 30]
28 | 6.10 | < 5.00 | – | CCc1nn(CC(=O)Nc2ccncc2)c(=O)c2cc3ccc(F)cc3n12 [Final Cpd 31]
29 | < 5.00 | < 5.00 | 264.11 | CCc1nn(CC(=O)NC2CCOCC2)c(=O)c2cc3ccc(C)cc3n12 [Final Cpd 32]
30 | 6.51 | < 5.00 | – | CCc1nn(CC(=O)Nc2ccncn2)c(=O)c2cc3ccc(F)cc3n12 [Final Cpd 33]
31 | 5.14 | < 5.00 | 274.18 | CCc1nn(CC(=O)NC2CCOCC2)c(=O)c2cc3cc(C)ccc3n12 [Final Cpd 34]
32 | < 5.00 | < 5.00 | 285.66 | CCc1nn(CC(=O)NC2CCOCC2)c(=O)c2cc3cc(F)ccc3n12 [Final Cpd 35]
33 | 5.14 | < 5.00 | – | CCc1nn(CC(=O)Nc2ccncn2)c(=O)c2cc3cc(F)ccc3n12 [Final Cpd 36]
34 | < 5.00 | < 5.00 | – | CCc1nn(CC(=O)Nc2ccncn2)c(=O)c2cc3cc(C)ccc3n12 [Final Cpd 37]
35 | 5.11 | < 4.70 | 243 | CCc1nn(CC(=O)Nc2ccn(C(C)C)n2)c(=O)c2cc3ccccc3n12 [Final Cpd 38]
36 | 6.75 | < 4.70 | – | CCc1nn(CC(=O)N[C@H]2C[C@@](C)(O)C2)c(=O)c2cc3ccc(F)cc3n12 [Final Cpd 39, 2-{4-ethyl-7-fluoro-1-oxo-[1,2,4]triazino[4,5-a]indol-2(1H)-yl}-N-((1s,3s)-3-hydroxy-3-methylcyclobutyl)acetamide]
37 | 6.63 | < 4.70 | – | CN(C)c1nn(CC(=O)N[C@H]2C[C@@](C)(O)C2)c(=O)c2cc3ccc(F)cc3n12 [Final Cpd 40]
38 | 7.28 | 4.81 | – | CC(C)c1nn(CC(=O)N[C@H]2C[C@@](C)(O)C2)c(=O)c2cc3ccccc3n12 [Final Cpd 41]
39 | 7.11 | 4.96 | – | CC(C)c1nn(CC(=O)N[C@H]2C[C@@](C)(O)C2)c(=O)c2cc3ccc(F)cc3n12 [Final Cpd 42]
40 | 7.07 | < 4.70 | – | CCc1nn(CC(=O)N[C@H]2C[C@@](C)(O)C2)c(=O)c2cc3ccccc3n12 [Final Cpd 43]
41 | 7.24 | < 4.70 | – | CN(C)c1nn(CC(=O)N[C@H]2C[C@@](C)(O)C2)c(=O)c2cc3ccccc3n12 [Final Cpd 44]
42 | 7.36 | < 4.70 | – | CC(C)c1nn(CC(=O)Nc2ccc3nncn3c2)c(=O)c2cc3ccc(F)cc3n12 [Final Cpd 46]
43 | 7.28 | < 4.70 | – | CN(C)c1nn(CC(=O)Nc2ccc3nncn3c2)c(=O)c2cc3ccccc3n12 [Final Cpd 47]
44 | 6.91 | < 4.70 | – | CCc1nn(CC(=O)Nc2ccc3nncn3c2)c(=O)c2cc3ccccc3n12 [Final Cpd 48]
45 | 7.60 | 5.40 | – | CC(C)c1nn(CC(=O)Nc2ccc3nncn3n2)c(=O)c2cc3ccccc3n12 [Final Cpd 49, N-([1,2,4]triazolo[4,3-b]pyridazin-6-yl)-2-(4-isopropyl-1-oxo-[1,2,4]triazino[4,5-a]indol-2(1H)-yl)acetamide]
46 | 5.39 | < 5.00 | – | COc1nn(CC(=O)NC2CC2)c(=O)c2cc3ccccc3n12 [Final Cpd 50]
